In patent US20240279218A1 (Hoffmann-La Roche Inc., priority 2016, published 2024):

What was measured:
h-GABA-A α5β3γ2 [1] = target: T1, h-GABA-A α5β3γ2 (Homo sapiens (Human), UniProt P18507+P31644); assay: [3H]flumazenil competition binding assay, membranes of HEK293 cells expressing human GABAA receptors; details: displacement of [3H]flumazenil 0.5 nM, HEK293 cells expressing human receptors, mean of two determinations; read-out: Ki h-GABA-A α5β3γ2
In short: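 Membranes were prepared from HEK293 cells with transient human α5β3γ2 expression and assayed in Krebs-tris, pH 7.5. Bound radioactivity measured on filters by liquid scintillation.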

h-GABA-A α5β3γ2 [2] = target: T1, h-GABA-A α5β3γ2; assay: Two-electrode voltage clamp electrophysiology in Xenopus oocytes expressing GABAA receptors, modulation of GABA EC20 current; type: cell-based; details: Xenopus oocytes; for Efficacy (GABA) %: % modulation of GABA EC20 = 100*(Fold increase−1); for Fold increase h-GABA-A α5β3γ2 oocyte: GABA EC20, test compound at approx. 30 fold its Ki
In short: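 Values are % modulation of an EC20 GABA response, derived point by point from the ratio of compound-exposed versus control current traces (extremum taken, 100×(fold−1)). Recordings used oocytes injected with human α5, β3, γ2 mRNA, clamped at −80 mV at room temperature, at least 3 oocytes each.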

Row | SMILES | Ki (h-GABA-A α5β3γ2 [1]) | Efficacy (GABA) % (h-GABA-A α5β3γ2 [2]) | Fold increase h-GABA-A α5β3γ2 oocyte (h-GABA-A α5β3γ2 [2])
1 | Cc1ccc(-c2noc(C)c2COc2ccc(C(=O)N3CC(F)(F)C3)nn2)cn1 [Example 47, (3,3-difluoroazetidin-1-yl)(6-((5-methyl-3-(6-methylpyridin-3-yl)isoxazol-4-yl)methoxy)pyridazin-3-yl)methanone] | 13 nM | 68% | 1.68
2 | Cc1ccc(-c2noc(C)c2COc2ccc(C(=O)N3CCC(F)(F)C3)nn2)cn1 [Example 48, (3,3-difluoropyrrolidin-1-yl)(6-((5-methyl-3-(6-methylpyridin-3-yl)isoxazol-4-yl)methoxy)pyridazin-3-yl)methanone] | 31.6 nM | 74% | 1.74
3 | Cc1ccc(-c2noc(C)c2COc2ccc(C(=O)NCC3(C)COC3)nn2)cn1 [Example 49, 6-((5-methyl-3-(6-methylpyridin-3-yl)isoxazol-4-yl)methoxy)-N-((3-methyloxetan-3-yl)methyl)pyridazine-3-carboxamide] | 13.6 nM | 70% | 1.7
4 | Cc1ccc(-c2noc(C)c2COc2ccc(C(=O)NCC3COC3)nn2)cn1 [Example 50, 6-((5-methyl-3-(6-methyl-3-pyridyl)isoxazol-4-yl)methoxy)-N-(oxetan-3-ylmethyl)pyridazine-3-carboxamide] | 7.6 nM | 72% | 1.72
5 | Cc1ccc(-c2noc(C)c2COc2ccc(C(=O)NCC3(O)COC3)nn2)cn1 [Example 51, N-((3-hydroxyoxetan-3-yl)methyl)-6-((5-methyl-3-(6-methylpyridin-3-yl)isoxazol-4-yl)methoxy)pyridazine-3-carboxamide] | 10.8 nM | 57% | 1.57
6 | Cc1ccc(-c2noc(C)c2COc2ccc(C(=O)N[C@@H]3CCOC[C@@H]3C)nn2)cn1 [Example 52, 6-((5-methyl-3-(6-methylpyridin-3-yl)isoxazol-4-yl)methoxy)-N-((3R,4R)-3-methyltetrahydropyran-4-yl)pyridazine-3-carboxamide] | 28.9 nM | 67% | 1.67
7 | Cc1ccc(-c2noc(C)c2COc2ccc(C(=O)N3CCC(F)(F)CC3)nn2)cn1 [Example 53, (4,4-difluoropiperidin-1-yl)(6-((5-methyl-3-(6-methylpyridin-3-yl)isoxazol-4-yl)methoxy)pyridazin-3-yl)methanone] | 95.8 nM | 80% | 1.8
8 | COCC1(NC(=O)c2ccc(OCc3c(-c4ccc(C)nc4)noc3C)nn2)CC1 [Example 54, N-(1-(methoxymethyl)cyclopropyl)-6-((5-methyl-3-(6-methylpyridin-3-yl)isoxazol-4-yl)methoxy)pyridazine-3-carboxamide] | 19.9 nM | 86% | 1.86
9 | COC1CN(C(=O)c2ccc(OCc3c(-c4ccc(C)nc4)noc3C)nn2)C1 [Example 55, (3-methoxyazetidin-1-yl)(6-((5-methyl-3-(6-methylpyridin-3-yl)isoxazol-4-yl)methoxy)pyridazin-3-yl)methanone] | 8.6 nM | 57% | 1.57
10 | Cc1ccc(-c2noc(C)c2COc2ccc(C(=O)N3CC(C)(O)C3)nn2)cn1 [Example 56, (3-hydroxy-3-methylazetidin-1-yl)(6-((5-methyl-3-(6-methylpyridin-3-yl)isoxazol-4-yl)methoxy)pyridazin-3-yl)methanone] | 7.9 nM | 64% | 1.64
11 | Cc1ccc(-c2noc(C)c2COc2ccc(C(=O)N3CCC3)nn2)cn1 [Example 57, azetidin-1-yl(6-((5-methyl-3-(6-methylpyridin-3-yl)isoxazol-4-yl)methoxy)pyridazin-3-yl)methanone] | 7.2 nM | 64% | 1.64
12 | Cc1ccc(-c2noc(C)c2COc2ccc(C(=O)NC3(C(F)(F)F)CC3)nn2)cn1 [Example 59, 6-((5-methyl-3-(6-methylpyridin-3-yl)isoxazol-4-yl)methoxy)-N-(1-(trifluoromethyl)cyclopropyl)pyridazine-3-carboxamide] | 10.4 nM | 93% | 1.93
13 | Cc1ccc(-c2noc(C)c2COc2ccc(C(=O)N3CCOCC3)nn2)cn1 [Example 60, (6-((5-methyl-3-(6-methylpyridin-3-yl)isoxazol-4-yl)methoxy)pyridazin-3-yl)(morpholino)methanone] | 93.4 nM | 99% | 1.99
14 | Cc1ccc(-c2noc(C)c2COc2ccc(C(=O)N3CC4(COC4)C3)nn2)cn1 [Example 61, (6-((5-methyl-3-(6-methylpyridin-3-yl)isoxazol-4-yl)methoxy)pyridazin-3-yl)(2-oxa-6-azaspiro[3.3]heptan-6-yl)methanone] | 7.1 nM | 58% | 1.58
15 | Cc1ccc(-c2noc(C)c2COc2cc(C)c(C(=O)NC3CCOCC3)nn2)cn1 [Example 62, 4-methyl-6-((5-methyl-3-(6-methylpyridin-3-yl)isoxazol-4-yl)methoxy)-N-(tetrahydropyran-4-yl)pyridazine-3-carboxamide] | 20.8 nM | 42% | 1.42
16 | Cc1ccc(-c2noc(C)c2COc2ccc(C(=O)N3CCC34COC4)nn2)cn1 [Example 63, (6-((5-methyl-3-(6-methylpyridin-3-yl)isoxazol-4-yl)methoxy)pyridazin-3-yl)(6-oxa-1-azaspiro[3.3]heptan-1-yl)methanone] | 4.6 nM | 79% | 1.79
17 | Cc1ccc(-c2noc(C)c2COc2ccc(C(=O)NC(C)(C)C(F)(F)F)nn2)cn1 [Example 64, 6-((5-methyl-3-(6-methylpyridin-3-yl)isoxazol-4-yl)methoxy)-N-(1,1,1-trifluoro-2-methylpropan-2-yl)pyridazine-3-carboxamide] | 17.6 nM | 86% | 1.86
18 | Cc1ccc(-c2noc(C)c2COc2ccc(C(=O)N3CC(F)C3)nn2)cn1 [Example 65, (3-fluoroazetidin-1-yl)(6-((5-methyl-3-(6-methylpyridin-3-yl)isoxazol-4-yl)methoxy)pyridazin-3-yl)methanone] | 7.2 nM | 62% | 1.62
19 | Cc1ccc(-c2noc(C)c2COc2ccc(C(=O)N3CC(O)C3)nn2)cn1 [Example 66, (3-hydroxyazetidin-1-yl)(6-((5-methyl-3-(6-methylpyridin-3-yl)isoxazol-4-yl)methoxy)pyridazin-3-yl)methanone] | 5.8 nM | 69% | 1.69
20 | Cc1ccc(-c2noc(C)c2COc2ccc(C(=O)N3CC(C)(F)C3)nn2)cn1 [Example 67, (3-fluoro-3-methylazetidin-1-yl)(6-((5-methyl-3-(6-methylpyridin-3-yl)isoxazol-4-yl)methoxy)pyridazin-3-yl)methanone] | 11.8 nM | 59% | 1.59
21 | CCOC(=O)C1(NC(=O)c2ccc(OCc3c(-c4ccc(C)nc4)noc3C)nn2)CC1 [Example 68, ethyl 1-(6-((5-methyl-3-(6-methylpyridin-3-yl)isoxazol-4-yl)methoxy)pyridazine-3-carboxamido)cyclopropanecarboxylate] | 56.2 nM | 72% | 1.72
22 | Cc1ccc(-c2noc(C)c2COc2ccc(C(=O)NC3(C#N)CC3)nn2)cn1 [Example 69, N-(1-cyanocyclopropyl)-6-((5-methyl-3-(6-methylpyridin-3-yl)isoxazol-4-yl)methoxy)pyridazine-3-carboxamide] | 7.7 nM | 86% | 1.86
23 | Cc1ccc(-c2noc(C)c2COc2nnc(C(N)=O)cc2C)cn1 [Example 70, 5-methyl-6-((5-methyl-3-(6-methylpyridin-3-yl)isoxazol-4-yl)methoxy)pyridazine-3-carboxamide] | 1.2 nM | 54% | 1.54
24 | Cc1ccc(-c2noc(C)c2COc2nnc(C(=O)NC3CCOCC3)cc2C)cn1 [Example 71] | 2.4 nM | 61% | 1.61
25 | Cc1ccc(-c2noc(C)c2COc2cnc(C(=O)NC3CCS(=O)(=O)CC3)cn2)cn1 [Example 72, N-(1,1-dioxothian-4-yl)-5-((5-methyl-3-(6-methyl-3-pyridyl)isoxazol-4-yl)methoxy)pyrazine-2-carboxamide] | 11.4 nM | 130% | 2.3
26 | Cc1ccc(-c2noc(C)c2COc2cnc(C(=O)NC(C)(C)CO)cn2)cn1 [Example 73, N-(2-hydroxy-1,1-dimethyl-ethyl)-5-((5-methyl-3-(6-methyl-3-pyridyl)isoxazol-4-yl)methoxy)pyrazine-2-carboxamide] | 52.8 nM | 45% | 1.45
